Where two headings read alike, the source gives them in different places.
What was measured:
[1] = target: T1, vanilloid receptor 1 (VR1/TRPV1) of the rat species (Rattus norvegicus, UniProt O35433); test: FLIPR Ca2+ influx assay on rat dorsal root ganglia cells (pharmacological method I); assay type: cell-based; settings: for Ki: table 4, capsaicin
T1 construct: The spinal column is removed from decapitated rats; from tissue; host or cells: primary cells dissociated from rat dorsal root ganglia
T1 sequence (O35433 whole entry): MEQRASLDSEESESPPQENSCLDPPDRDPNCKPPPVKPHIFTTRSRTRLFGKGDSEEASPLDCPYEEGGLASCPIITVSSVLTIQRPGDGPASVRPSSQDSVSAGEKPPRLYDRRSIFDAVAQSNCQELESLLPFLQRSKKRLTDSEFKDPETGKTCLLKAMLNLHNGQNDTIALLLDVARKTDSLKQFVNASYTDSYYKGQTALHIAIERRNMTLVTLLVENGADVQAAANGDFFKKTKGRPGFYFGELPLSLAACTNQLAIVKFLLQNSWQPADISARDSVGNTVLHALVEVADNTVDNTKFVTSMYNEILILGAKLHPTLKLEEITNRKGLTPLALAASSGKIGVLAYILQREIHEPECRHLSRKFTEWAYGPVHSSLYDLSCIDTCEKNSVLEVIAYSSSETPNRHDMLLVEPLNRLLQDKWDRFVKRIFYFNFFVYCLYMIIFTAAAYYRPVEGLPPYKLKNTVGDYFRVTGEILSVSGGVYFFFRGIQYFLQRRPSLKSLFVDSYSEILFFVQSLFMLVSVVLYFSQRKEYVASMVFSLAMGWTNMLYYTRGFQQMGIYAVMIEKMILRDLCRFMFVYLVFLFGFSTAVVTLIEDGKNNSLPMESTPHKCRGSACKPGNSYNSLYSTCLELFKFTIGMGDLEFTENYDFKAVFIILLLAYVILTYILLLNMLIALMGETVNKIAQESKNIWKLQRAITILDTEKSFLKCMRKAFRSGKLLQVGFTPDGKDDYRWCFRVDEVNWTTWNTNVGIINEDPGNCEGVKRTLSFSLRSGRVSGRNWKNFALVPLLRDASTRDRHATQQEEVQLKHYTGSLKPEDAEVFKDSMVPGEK
Summary of the method: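 Primary rat dorsal root ganglion cells loaded with 2 μM Fluo-4, Ca2+ influx read on FLIPR as peak fluorescence. Triplicates, at least 3 independent experiments.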

VR1/TRPV1 receptor = VR1/TRPV1 receptor (Homo sapiens, UniProt Q8NER1); test: IC50 (human) after pH stimulus; assay type: cell-based; settings: for IC50: table 4
Chain of VR1/TRPV1 receptor (Q8NER1 whole entry): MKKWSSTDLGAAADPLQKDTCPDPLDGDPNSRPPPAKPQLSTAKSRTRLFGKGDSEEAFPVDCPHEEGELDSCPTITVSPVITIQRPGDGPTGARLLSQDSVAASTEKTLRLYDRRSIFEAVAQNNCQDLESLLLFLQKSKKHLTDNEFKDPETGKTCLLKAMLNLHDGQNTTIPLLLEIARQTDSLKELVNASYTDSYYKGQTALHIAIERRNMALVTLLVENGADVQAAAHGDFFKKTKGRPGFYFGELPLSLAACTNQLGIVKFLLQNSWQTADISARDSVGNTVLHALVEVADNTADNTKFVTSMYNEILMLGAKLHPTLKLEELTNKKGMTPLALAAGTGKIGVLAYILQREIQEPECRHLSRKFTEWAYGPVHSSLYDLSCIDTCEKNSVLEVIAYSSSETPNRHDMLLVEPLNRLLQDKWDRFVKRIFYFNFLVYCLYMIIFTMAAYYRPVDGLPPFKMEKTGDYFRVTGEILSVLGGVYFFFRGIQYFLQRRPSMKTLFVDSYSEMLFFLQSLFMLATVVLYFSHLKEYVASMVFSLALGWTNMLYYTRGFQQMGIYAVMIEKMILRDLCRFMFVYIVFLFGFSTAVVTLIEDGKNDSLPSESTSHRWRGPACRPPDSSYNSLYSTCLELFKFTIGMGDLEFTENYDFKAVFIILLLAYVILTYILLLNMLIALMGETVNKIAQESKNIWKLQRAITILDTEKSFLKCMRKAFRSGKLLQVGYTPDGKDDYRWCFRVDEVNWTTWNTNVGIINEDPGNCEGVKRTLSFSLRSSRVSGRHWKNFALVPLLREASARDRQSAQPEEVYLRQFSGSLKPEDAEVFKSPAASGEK

[2] = test system: capsaicin induced hypothermie; test: Hypothermie assay in the mouse (capsaicin induced hypothermie); assay type: in vivo; settings: mouse, read-out: inhibition hypothermie (n = 5); for inhibition in vivo at 0.3 mg/kg: 0.3 mg/kg body weight po
vanilloid receptor (VR1) = target: T2, vanilloid receptor (VR1) (Homo sapiens, UniProt Q8NER1); test: FLIPR Ca2+ influx assay on CHO K1 cells transfected with the VR1 gene (pharmacological method II); assay type: cell-based; settings: table 4; capsaicin; read-out: Ki (human) Cap.
T2 construct: expressed in transfected cells; host or cells: CHO K1 cells (ECACC), stably transfected
T2 sequence (Q8NER1 whole entry): as above

[3] = test system: formaldehyde induced nociceptive behaviour; test: Formaldehyde test in mice, second (late) phase; assay type: in vivo, mouse; settings: mouse, read-out: inhibition formaldehyde test (n = 10); for inhibition in vivo at 0.3 mg/kg: 0.3 mg/kg body weight po

| Structure (SMILES) | Ki ([1]; read-out: Ki (rat) Cap.) | IC50 (VR1/TRPV1 receptor) | Ki (vanilloid receptor (VR1)) | Ki ([1]; Ki (rat) Cap.) | inhibition at 10 µM (VR1/TRPV1 receptor; @ 10 μM, read-out: inhibition in percent, IC50 (human) after pH stimulus) | inhibition in vivo at 0.3 mg/kg [2] | inhibition in vivo at 0.3 mg/kg [3] | inhibition at 1 µM ([1]; read-out: inhibition in percent, Ki (rat) Cap.) | inhibition in vivo at 0.1 mg/kg ([3]; 0.1 mg/kg body weight po) | inhibition in vivo at 1 mg/kg ([2]; 1 mg/kg body weight po) | inhibition in vivo at 1 mg/kg ([3]; 1 mg/kg body weight po) |
| --- | --- | --- | --- | --- | --- | --- | --- | --- | --- | --- | --- |
| CC(C(=O)NCc1ccc(C(F)(F)F)nc1-c1ccc(C(C)(C)C)cc1)c1ccc(NS(C)(=O)=O)c(F)c1 (stereo not shown) [Example 117] | 0.5 nM | 23.5 nM | 0.5 nM | – | – | 70% | 5% | – | – | – | – |
| CCCCOc1cc(C(C)(C)C)ccc1CNC(=O)C(C)c1ccc(NS(C)(=O)=O)c(F)c1 (stereo not shown) [Example 108, N-(2-butoxy-4-tert-butyl-benzyl)-2-(3-fluoro-4-methylsulfonamido-phenyl)-propionamide] | 0.6 nM | 114 nM | 1.4 nM | – | – | 38% | 15% | – | – | – | – |
| CC(C(=O)NCc1ccc(C(F)(F)F)nc1NC1CCCCC1)c1ccc(NS(C)(=O)=O)c(F)c1 (stereo not shown) [Example 90, N-(2-cyclohexylamino-6-trifluoromethyl-pyridin-3-ylmethyl)-2-(3-fluoro-4-methylsulfonamido-phenyl)-propionamide] | 47 nM | 260 nM | 20.4 nM | – | – | 81% | 46% | – | – | – | – |
| CC(C(=O)NCc1ccc(C(F)(F)F)nc1OCc1ccncc1)c1ccc(NS(C)(=O)=O)c(F)c1 (stereo not shown) [Example 177, 2-(3-fluoro-4-methylsulfonamido-phenyl)-N-[2-(pyridin-4-ylmethoxy)-6-trifluoromethyl-pyridin-3-ylmethyl]-propionamide] | – | 1290 nM | 51 nM | – | – | 14% | 31% | 34% | – | – | – |
| CCCCOC1CCN(c2nc(C(F)(F)F)ccc2CNC(=O)C(C)c2ccc(NS(C)(=O)=O)c(F)c2)CC1 (stereo not shown) [Example 160, N-(4-butoxy-6′-trifluoromethyl-3,4,5,6-tetrahydro-2H-[1,2′]bipyridinyl-3′-ylmethyl)-2-(3-fluoro-4-methylsulfonamido-phenyl)-propionamide] | 3 nM | 28.2 nM | 3.5 nM | – | – | 28% | 10% | – | – | – | – |
| CC(C(=O)NCc1ccc(C(F)(F)F)nc1N1CCCC1)c1ccc(NS(C)(=O)=O)c(Br)c1 (stereo not shown) [Example 103, 2-(3-bromo-4-methylsulfonamido-phenyl)-N-(2-pyrrolidin-1-yl-6-trifluoromethyl-pyridin-3-ylmethyl)-propionamide] | 4.9 nM | – | 2.8 nM | – | 16% | 39% | 36% | – | – | – | – |
| Cc1cc(C(C)C(=O)NCc2ccc(C(F)(F)F)nc2N2CCCCC2)ccc1NS(C)(=O)=O (stereo not shown) [Example 127, 2-(4-methylsulfonamido-3-methyl-phenyl)-N-(6′-trifluoromethyl-3,4,5,6-tetrahydro-2H-[1,2′]bipyridinyl-3′-ylmethyl)-propionamide] | 0.6 nM | 15.4 nM | 0.5 nM | – | – | 6% | 22% | – | – | – | – |
| CCCCNc1nc(C(F)(F)F)ccc1CNC(=O)C(C)c1ccc(NS(C)(=O)=O)c(F)c1 (stereo not shown) [Example 116, N-(2-butylamino-6-trifluoromethyl-pyridin-3-ylmethyl)-2-(3-fluoro-4-methylsulfonamido-phenyl)-propionamide] | 6.6 nM | 293 nM | 9.1 nM | – | – | 21% | – | – | 39% | – | – |
| CC(C)CCOc1nc(C(C)(C)C)ccc1CNC(=O)C(C)c1ccc(NS(C)(=O)=O)c(F)c1 (stereo not shown) [Example 329, N-[6-tert-butyl-2-(3-methyl-butoxy)-pyridin-3-ylmethyl]-2-(3-fluoro-4-methylsulfonamido-phenyl)-propionamide] | – | 179 nM | 0.8 nM | – | – | – | – | – | – | 7% | 54% |

Now from value to compound, other results behind:

| Ki ([1]; read-out: Ki (rat) Cap.) | IC50 (VR1/TRPV1 receptor) | Ki (vanilloid receptor (VR1)) | Ki ([1]; Ki (rat) Cap.) | inhibition at 10 µM (VR1/TRPV1 receptor; @ 10 μM, read-out: inhibition in percent, IC50 (human) after pH stimulus) | Structure (SMILES) | inhibition in vivo at 0.3 mg/kg [2] | inhibition in vivo at 0.3 mg/kg [3] | inhibition at 1 µM ([1]; read-out: inhibition in percent, Ki (rat) Cap.) | inhibition in vivo at 0.1 mg/kg ([3]; 0.1 mg/kg body weight po) | inhibition in vivo at 1 mg/kg ([2]; 1 mg/kg body weight po) | inhibition in vivo at 1 mg/kg ([3]; 1 mg/kg body weight po) |
| --- | --- | --- | --- | --- | --- | --- | --- | --- | --- | --- | --- |
| 4.5 nM | 34.3 nM | 2.1 nM | – | – | CC(C(=S)NCc1ccc(C(F)(F)F)nc1-c1ccc(F)cc1)c1ccc(NS(C)(=O)=O)c(F)c1 (stereo not shown) [Example 130, 2-(3-fluoro-4-methylsulfonamido-phenyl)-N-[2-(4-fluoro-phenyl)-6-trifluoromethyl-pyridin-3-ylmethyl]-thiopropionamide] | 58% | 41% | – | – | – | – |
| 21.4 nM | 280 nM | 2.4 nM | – | – | COC1CCN(c2nc(C(F)(F)F)ccc2CNC(=O)C(C)c2ccc(NS(C)(=O)=O)c(F)c2)CC1 (stereo not shown) [Example 159, 2-(3-fluoro-4-methylsulfonamido-phenyl)-N-(4-methoxy-6′-trifluoromethyl-3,4,5,6-tetrahydro-2H-[1,2′]bipyridinyl-3′-ylmethyl)-propionamide] | 28% | 10% | – | – | – | – |
| 7.3 nM | 637 nM | 4.2 nM | – | – | CC(C(=O)NCc1ccc(C(F)(F)Cl)nc1OCc1ccccn1)c1ccc(NS(C)(=O)=O)c(F)c1 (stereo not shown) [Example 182, N-[6-(chloro-difluoro-methyl)-2-(pyridin-2-ylmethoxy)-pyridin-3-ylmethyl]-2-(3-fluoro-4-methylsulfonamido-phenyl)-propionamide] | 45% | 1% | – | – | – | – |
| 78.4 nM | 414 nM | 65.7 nM | – | – | CC(C(=O)NCc1ccc(C(F)(F)F)nc1NCc1ccc(Cl)cc1)c1ccc(NS(C)(=O)=O)c(F)c1 (stereo not shown) [Example 173, N-[2-(4-chloro-benzylamino)-6-trifluoromethyl-pyridin-3-ylmethyl]-2-(3-fluoro-4-methylsulfonamido-phenyl)-propionamide] | 36% | 0% | – | – | – | – |
| 1.4 nM | 17.6 nM | 0.9 nM | – | – | CC(C(=O)NCc1ccc(C(F)(F)Cl)nc1OC1CCCCC1)c1ccc(NS(C)(=O)=O)c(F)c1 (stereo not shown) [Example 168, N-[6-(chloro-difluoro-methyl)-2-cyclohexyloxy-pyridin-3-ylmethyl]-2-(3-fluoro-4-methylsulfonamido-phenyl)-propionamide] | 21% | 1% | – | – | – | – |
| – | 125 nM | 4.8 nM | 2.4 nM | – | CCC1CCC(Oc2nc(C(F)(F)F)ccc2CNC(=O)C(C)c2ccc(NS(C)(=O)=O)c(F)c2)CC1 (stereo not shown) [Example 171, N-[2-(4-ethyl-cyclohexyloxy)-6-trifluoromethyl-pyridin-3-ylmethyl]-2-(3-fluoro-4-methylsulfonamido-phenyl)-propionamide] | 32% | 45% | – | – | – | – |
| 1.4 nM | 64.5 nM | 1.6 nM | – | – | CC(C(=O)NCc1ccc(C(F)(F)F)cc1N1CCCCCC1)c1ccc(NS(C)(=O)=O)c(F)c1 (stereo not shown) [Example 174, N-(2-azepan-1-yl-4-trifluoromethyl-benzyl)-2-(3-fluoro-4-methylsulfonamido-phenyl)-propionamide] | 39% | 5% | – | – | – | – |
| 1.9 nM | – | – | – | – | CC(C(=O)NCc1ccc(C(F)(F)F)nc1OCCc1ccccc1)c1ccc(NS(C)(=O)=O)c(F)c1 (stereo not shown) [Example 178, 2-(3-fluoro-4-methylsulfonamido-phenyl)-N-(2-phenethyloxy-6-trifluoromethyl-pyridin-3-ylmethyl)-propionamide] | 42% | 16% | – | – | – | – |
